These are literature values, as cited in patent EP4520318A1, “TRANSDERMAL THERAPEUTIC SYSTEM OF LUMATEPERONE” (Luye Pharma Switzerland AG, priority 2023, dated 2025).

For this data set the following is noted: oral administration.

Take `CN1CCN2c3c(cccc31)[C@@H]1CN(CCCC(=O)c3ccc(F)cc3)CC[C@@H]12` [lumateperone, 1-(4-fluoro-phenyl)-4-((6bR, 10aS)-3-methyl-2,3,6b,9,10,10a-hexahydro-1H,7H-pyrido[3',4':4,5]pyrrolo[1,2,3-de]quinoxalin-8-yl)-butan-1-one]: the oral bioavailability entry is “about 4.4%”.
